{"source": "patent US20090004145A1", "about": "“COMPOSITIONS AND METHODS INVOLVING GENE THERAPY AND PROTEASOME MODULATION” (priority 2006, published 2009)", "key": {"[1]": {"details": "in vivo; cited from earlier work"}, "[2]": {"system": "chronic myelogenous leukemia", "details": "adults with previously untreated chronic myelogenous leukemia; cited from earlier work"}, "2008 cells [3]": {"system": "2008 cells", "assay": "XTT cell viability assay of CDDP-treated ovarian cancer cell lines", "format": "cell-based, human", "details": "CDDP 1 h, then 72 h incubation", "protocol": "(§1) FIG. 1. Determination of IC50 values for CDDP-Treated Ovarian Cancer Cell Lines. Human ovarian tumor (2008 and 2008/C*13R) tumor cells (2×10^3) seeded in 96-well plates were treated with various doses of CDDP (0, 10, 20, 30, 60, 80, 100 μM). After 1 h of treatment, CDDP containing medium was removed and fresh medium added to the wells. Cells were incubated for 72 h following which were subjected to XTT assay to determine cell viability. Untreated cells served as controls.\nas §1, with “Determination” for “FIG. 1. Determination”, “controls. […] (FIG. 1)” for “controls.”"}, "2008/C*13R cells": {"system": "2008/C*13R cells", "assay": "XTT cell viability assay of CDDP-treated ovarian cancer cell lines", "format": "cell-based, human", "details": "CDDP 1 h, then 72 h incubation", "protocol": "as §1\nas §1, with “Determination” for “FIG. 1. Determination”, “controls. […] (FIG. 1)” for “controls.”"}, "[4]": {"details": "in vivo; cited from earlier work", "remark": "listed apart in the source"}, "2008 cells [5]": {"system": "2008 cells", "assay": "Tumor cell killing, trypan blue assay", "format": "cell-based, human", "details": "CDDP 25 μM, vector 3000 vp/cell, 72 h", "protocol": "FIG. 3. Ad-mda7 plus CDDP treatment sensitizes CDDP-resistant tumor cells. CDDP-resistant (2008/C*13 R) and sensitive (2008) ovarian tumor cells were plated in six-well plates and treated with PBS, CDDP (25 μM) Ad-luc, Ad-mda7 (3000 vp/cell), Ad-mda7 plus CDDP or Ad-luc plus CDDP. Treatment schedule was as follows: pretreatment with CDDP for 1 h, washed with PBS to remove any residual CDDP and then infect with Ad-mda7 for 3 h in serum free medium followed by replenishment of complete medium. Cells were harvested at 72 h after treatment and number of dead cells counted by the trypan blue assay.\nFIG. 8. CDDP-resistant tumor cells are more sensitive to Ad-mda7. […] Cells were harvested on day 3 and day 5 after treatment and number of dead cells counted by the trypan blue assay and analyzed for apoptotic markers by western blotting. […]\nNext, CDDP-resistant (2008/C*13 R) and sensitive (2008) ovarian tumor cells were plated in six-well plates and treated with PBS, CDDP (25 μM) Ad-luc, Ad-mda7 (3000 vp/cell), Ad-mda7 plus CDDP or Ad-luc plus CDDP. […] Cells were harvested at 72 h after treatment and number of dead cells counted by the trypan blue assay.\nCDDP-Resistant Tumor Cells are More Sensitive to Ad-mda7. […] Cells were harvested on day 3 and day 5 after treatment and number of dead cells counted by the trypan blue assay and analyzed for apoptotic markers by western blotting. […]"}, "[6]": {"details": "cited from earlier work"}, "[7]": {"details": "15 minutes after intravenous administration; cited from earlier work"}, "multiple myeloma": {"system": "multiple myeloma", "details": "oral administration; cited from earlier work"}, "[8]": {"details": "humans, intravenous administration; cited from earlier work"}, "Hodgkin's disease": {"system": "Hodgkin's disease", "details": "cited from earlier work"}, "[9]": {"details": "usual clinical doses; cited from earlier work"}, "[10]": {"details": "cited from earlier work", "remark": "listed apart in the source"}, "[11]": {"details": "mice; cited from earlier work"}}, "note": "Read-outs that look alike come from different tables or passages of the source. *1 amine or outer side, *2 acyl side, *3 side chain or, on linkers, in order; H or OH if unused. Where a SMILES comes first, the peptide text is derived from it. Bridges are numbered along the chain shown (N, C = ends). Roman numbers before positions name the chains, in order. [ ]: non-standard residue; d: D form. Actinocin(9to1) = Cc1c2oc3c(C)ccc(C(=O)[*:1])c3nc-2c(C(=O)[*:2])c(N)c1=O; NMeV = CN[C@H](C(=O)O)C(C)C; Sar = CNCC(=O)O", "data": [{"molecule": "Cc1c2oc3c(C)ccc(C(=O)N[C@@H]4C(=O)N[C@H](C(C)C)C(=O)N5CCC[C@H]5C(=O)N(C)CC(=O)N(C)[C@@H](C(C)C)C(=O)O[C@@H]4C)c3nc-2c(C(=O)N[C@@H]2C(=O)N[C@H](C(C)C)C(=O)N3CCC[C@H]3C(=O)N(C)CC(=O)N(C)[C@@H](C(C)C)C(=O)O[C@@H]2C)c(N)c1=O", "note": "[Actinomycin D] (I: T[dV]P[Sar][NMeV] / II: T[dV]P[Sar][NMeV]; ester I:1-I:C, II:1-II:C; linker I:N-II:N via Actinocin(9to1))", "values": [{"measurement": "passage of the blood-brain barrier", "setting": "[1]", "value": "does not pass the blood-brain barrier"}]}, {"molecule": "CS(=O)(=O)OCCCCOS(C)(=O)=O", "note": "[Busulfan, 1,4-butanediol dimethanesulfonate]", "values": [{"measurement": "patients obtaining hematologic remission", "setting": "[2]", "value": "Approximately 90%"}]}, {"molecule": "[NH2][Pt]([NH2])([Cl])[Cl]", "note": "[CDDP, Cisplatin]", "values": [{"measurement": "IC50", "setting": "2008 cells [3]", "value": 30, "unit": "µM"}, {"measurement": "IC50", "setting": "2008/C*13R cells", "value": 145, "unit": "µM"}, {"measurement": "oral absorption", "setting": "[4]", "value": "not absorbed orally"}, {"measurement": "percent killing", "setting": "2008 cells [5]", "value": "similar"}]}, {"molecule": "CC[C@@]1(O)C(=O)OCc2c1cc1n(c2=O)Cc2cc3ccccc3nc2-1", "note": "[Camptothecin]", "values": [{"measurement": "solubility (clear yellow solution)", "setting": "[6]; camptothecin in DMSO 1N sodium hydroxide", "value": 50, "unit": "mg/mL"}, {"measurement": "storage stability", "setting": "[6]; camptothecin, 2-8° C., dry, airtight, light-resistant", "value": "at least two"}, {"measurement": "water solubility", "setting": "[6]; camptothecin", "value": "poor water-solubility"}]}, {"molecule": "O=NN(CCCl)C(=O)NCCCl", "note": "[Carmustine, 1,3bis-(2-chloroethyl)-1-nitrosourea]", "values": [{"measurement": "solubility in water", "setting": "[6]; carmustine", "value": "poorly soluble"}]}, {"molecule": "O=NN(CCCl)C(=O)NC1CCCCC1", "note": "[Lomustine, 1-(2-chloro-ethyl)-3-cyclohexyl-1 nitrosourea]", "values": [{"measurement": "ionization at a physiological pH", "setting": "[6]; lomustine", "value": "relatively unionized"}, {"measurement": "solubility in 10% ethanol", "setting": "[6]; lomustine", "value": 0.05, "unit": "mg per ml"}, {"measurement": "solubility in absolute alcohol", "setting": "[6]; lomustine", "value": 70, "unit": "mg per ml"}, {"measurement": "solubility in water", "setting": "[6]; lomustine", "value": "< 0.05", "unit": "mg per ml"}, {"measurement": "tissue levels", "setting": "[7]", "value": "comparable to plasma levels"}]}, {"molecule": "N[C@@H](Cc1ccc(N(CCCl)CCCl)cc1)C(=O)O", "note": "[Melphalan, 4-[bis(2-chloroethyl)amino]-L-phenylalanine]", "values": [{"measurement": "solubility in water", "setting": "[6]; melphalan", "value": "insoluble in water"}, {"measurement": "patients showing a favorable response", "setting": "multiple myeloma", "value": "about one third to one half"}]}, {"molecule": "CO[C@@]12[C@H](COC(N)=O)C3=C(C(=O)C(C)=C(N)C3=O)N1C[C@@H]1N[C@@H]12", "note": "[Mitomycin]", "values": [{"measurement": "heat stability", "setting": "[6]; mitomycin", "value": "heat stable"}, {"measurement": "clearance from the serum", "setting": "[8]", "value": "rapidly cleared"}]}, {"molecule": "CC[C@]1(O)C[C@@H]2CN(CCc3c([nH]c4ccccc34)[C@@](C(=O)OC)(c3cc4c(cc3OC)N(C)[C@H]3[C@@](O)(C(=O)OC)[C@H](OC(C)=O)[C@]5(CC)C=CCN6CC[C@]43[C@@H]65)C2)C1", "note": "[Vinblastine]", "values": [{"measurement": "cases with significant improvement", "setting": "Hodgkin's disease", "value": "50 to 90", "unit": "%"}]}, {"molecule": "CC[C@]1(O)C[C@H]2CN(CCc3c([nH]c4ccccc34)[C@@](C(=O)OC)(c3cc4c(cc3OC)N(C=O)[C@H]3[C@@](O)(C(=O)OC)[C@H](OC(C)=O)[C@]5(CC)C=CCN6CC[C@]43[C@@H]65)C2)C1", "note": "[Vincristine]", "values": [{"measurement": "peak concentration in plasma", "setting": "[9]", "value": "approximately 0.4 mM"}]}, {"molecule": "Bleomycin", "values": [{"measurement": "administered dose recovered in the urine as active bleomycin", "setting": "[10]; humans", "value": "60% to 70"}, {"measurement": "plasma or serum terminal elimination half-life", "setting": "[10]; patients with creatinine clearance <35 mL per minute, as clearance decreases", "value": "increases exponentially"}, {"measurement": "concentrations in hematopoietic tissue / bone marrow", "setting": "[11]", "value": "low concentrations"}, {"measurement": "concentrations in skin, lungs, kidneys, peritoneum and lymphatics", "setting": "[11]", "value": "high concentrations"}, {"measurement": "solubility in water", "setting": "[6]; bleomycin", "value": "freely soluble in water"}]}]}
